As usually defined, the pEC50 is the EC50 on a negative log10 scale, so that one unit is a factor of ten. As usually defined, the Emax is the greatest response seen or fitted, relative to the assay's reference.

This note sets out measurements from US20240208992A1, “MACROCYCLES AS CFTR MODULATORS” (Idorsia Pharmaceuticals Ltd, priority 2021, published 2024).

The assay addresses human F508del-CFTR (Homo sapiens, UniProt P13569, DEL508-508). Briefly: F508del-CFTR cell surface expression (corrector activity), DiscoveRx ß-galactosidase complementation chemiluminescence assay in recombinant U2OS cell line.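 As to all read-outs here: U2OS cells co-expressing ProLink-tagged F508del-CFTR and a membrane-anchored enzyme acceptor, where more surface CFTR restores β-galactosidase activity measured by chemiluminescence.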 The note with it: for pEC50: EC50, F508del-CFTR cell surface expression, U2OS cells, 16h compound incubation, geomean values; for Emax: U2OS, in relation to Emax of corrector lumacaftor (=100%), arithmetic mean values.

pEC50: −log10 of the molar value.

Chain of human F508del-CFTR (P13569 with tags, fused parts or gaps DEL508-508): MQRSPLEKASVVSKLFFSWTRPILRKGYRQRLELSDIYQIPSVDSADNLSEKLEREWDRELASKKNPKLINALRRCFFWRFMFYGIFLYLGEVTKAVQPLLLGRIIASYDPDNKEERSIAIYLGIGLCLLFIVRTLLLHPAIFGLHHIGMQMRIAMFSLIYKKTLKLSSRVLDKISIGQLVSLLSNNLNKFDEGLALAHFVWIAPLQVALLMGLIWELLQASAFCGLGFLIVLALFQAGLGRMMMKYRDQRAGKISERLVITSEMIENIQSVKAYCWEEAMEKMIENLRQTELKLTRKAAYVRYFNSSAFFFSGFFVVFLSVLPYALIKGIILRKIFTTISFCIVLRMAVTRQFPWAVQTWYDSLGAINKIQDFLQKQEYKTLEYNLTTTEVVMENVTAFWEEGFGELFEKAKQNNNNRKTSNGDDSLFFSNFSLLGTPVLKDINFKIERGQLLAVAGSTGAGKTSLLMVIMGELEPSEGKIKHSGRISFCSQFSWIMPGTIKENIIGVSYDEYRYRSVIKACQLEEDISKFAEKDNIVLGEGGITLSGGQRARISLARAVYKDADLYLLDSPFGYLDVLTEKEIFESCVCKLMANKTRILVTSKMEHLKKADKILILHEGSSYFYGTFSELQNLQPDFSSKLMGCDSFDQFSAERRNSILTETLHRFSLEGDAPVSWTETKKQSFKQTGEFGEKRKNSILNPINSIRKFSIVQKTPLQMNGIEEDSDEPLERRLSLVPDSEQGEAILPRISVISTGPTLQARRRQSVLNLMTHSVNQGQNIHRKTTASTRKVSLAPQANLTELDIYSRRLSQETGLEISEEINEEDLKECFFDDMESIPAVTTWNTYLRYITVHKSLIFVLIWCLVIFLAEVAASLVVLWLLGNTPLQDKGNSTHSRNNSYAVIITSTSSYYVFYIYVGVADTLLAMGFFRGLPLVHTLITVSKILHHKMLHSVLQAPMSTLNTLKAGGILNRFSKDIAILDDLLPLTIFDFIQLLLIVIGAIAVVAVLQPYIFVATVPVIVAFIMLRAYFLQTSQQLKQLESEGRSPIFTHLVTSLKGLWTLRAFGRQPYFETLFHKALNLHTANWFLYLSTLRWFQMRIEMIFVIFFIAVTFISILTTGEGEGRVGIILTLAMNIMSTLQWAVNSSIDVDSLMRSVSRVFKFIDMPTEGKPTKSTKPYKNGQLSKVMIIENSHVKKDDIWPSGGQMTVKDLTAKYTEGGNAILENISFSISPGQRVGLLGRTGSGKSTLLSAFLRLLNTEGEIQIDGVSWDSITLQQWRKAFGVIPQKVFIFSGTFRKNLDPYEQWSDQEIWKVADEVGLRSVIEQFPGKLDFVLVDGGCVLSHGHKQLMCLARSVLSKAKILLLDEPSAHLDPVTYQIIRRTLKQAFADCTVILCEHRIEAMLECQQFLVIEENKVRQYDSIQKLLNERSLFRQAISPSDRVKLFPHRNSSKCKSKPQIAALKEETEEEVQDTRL

With `COc1cccc(CCNC(=O)[C@@H]2CC(=O)N(C)[C@@H](CC(C)C)C(=O)N3CCN(c4ccccc4)C[C@H]3C(=O)N[C@H](Cc3ccccc3)COc3ccnc(OC)c3C(=O)N2)c1` [Example 549, (7S,11S,20R,22aS)-20-benzyl-7-isobutyl-14-methoxy-N-(3-methoxyphenethyl)-8-methyl-6,9,13,22-tetraoxo-2-phenyl-1,3,4,6,7,8,9,10,11,12,13,19,20,21,22,22a-hexadecahydro-2H-pyrazino[2,1-f]pyrido[3,4-p][1]oxa[4,7,10,14]tetraazacycloheptadecine-11-carboxamide], the pEC50 is 6.78 and the Emax is 167%.
The matching figures for `COc1nccc2c1C(=O)N[C@H](C(=O)NCCc1cc(C)no1)CC(=O)N(C)[C@@H](CC(C)C)C(=O)N1CCN(c3ccccc3)C[C@H]1C(=O)N[C@H](Cc1ccccc1)CO2` [Example 550, (7S,11S,20R,22aS)-20-benzyl-7-isobutyl-14-methoxy-8-methyl-N-(2-(3-methylisoxazol-5-yl)ethyl)-6,9,13,22-tetraoxo-2-phenyl-1,3,4,6,7,8,9,10,11,12,13,19,20,21,22,22a-hexadecahydro-2H-pyrazino[2,1-f]pyrido[3,4-p][1]oxa[4,7,10,14]tetraazacycloheptadecine-11-carboxamide]: 6.16 and 129%.
For `COc1cccc(CCNC(=O)[C@@H]2CC(=O)N(C)[C@@H](CC(C)C)C(=O)N(C)C3(CC3)C(=O)N[C@H](Cc3ccccc3)COc3ccc4cc(C)oc4c3C(=O)N2)c1` [Example 551, (8R,14S,18S)-8-benzyl-14-isobutyl-N-(3-methoxyphenethyl)-2,12,15-trimethyl-10,13,16,20-tetraoxo-7,8,9,10,13,14,15,16,17,18,19,20-dodecahydro-12H-spiro[benzofuro[7,6-p][1]oxa[4,7,10,14]tetraazacycloheptadecine-11,1′-cyclopropane]-18-carboxamide], in that order: 6.65 and 317%.
The matching figures for `Cc1cc2ccc3c(c2o1)C(=O)N[C@H](C(=O)NCCc1cc(C2CC2)no1)CC(=O)N(C)[C@@H](CC(C)C)C(=O)N(C)C1(CC1)C(=O)N[C@H](Cc1ccccc1)CO3` [Example 552, (8R,14S,18S)-8-benzyl-N-(2-(3-cyclopropylisoxazol-5-yl)ethyl)-14-isobutyl-2,12,15-trimethyl-10,13,16,20-tetraoxo-7,8,9,10,13,14,15,16,17,18,19,20-dodecahydro-12H-spiro[benzofuro[7,6-p][1]oxa[4,7,10,14]tetraazacycloheptadecine-11,1′-cyclopropane]-18-carboxamide]: 6.38 and 358%.
For `Cc1cc2ccc3c(c2o1)C(=O)N[C@H](C(=O)NCCc1noc(C2CC2)n1)CC(=O)N(C)[C@@H](CC(C)C)C(=O)N(C)C1(CC1)C(=O)N[C@H](Cc1ccccc1)CO3` [Example 553, (8R,14S,18S)-8-benzyl-N-(2-(5-cyclopropyl-1,2,4-oxadiazol-3-yl)ethyl)-14-isobutyl-2,12,15-trimethyl-10,13,16,20-tetraoxo-7,8,9,10,13,14,15,16,17,18,19,20-dodecahydro-12H-spiro[benzofuro[7,6-p][1]oxa[4,7,10,14]tetraazacycloheptadecine-11,1′-cyclopropane]-18-carboxamide], the pEC50 is 6.54 and the Emax came out at 304%.
As to `Cc1cc2ccc3c(c2o1)C(=O)N[C@H](C(=O)NCCc1nc(C2CC2)no1)CC(=O)N(C)[C@@H](CC(C)C)C(=O)N(C)C1(CC1)C(=O)N[C@H](Cc1ccccc1)CO3` [Example 554, (8R,14S,18S)-8-benzyl-N-(2-(3-cyclopropyl-1,2,4-oxadiazol-5-yl)ethyl)-14-isobutyl-2,12,15-trimethyl-10,13,16,20-tetraoxo-7,8,9,10,13,14,15,16,17,18,19,20-dodecahydro-12H-spiro[benzofuro[7,6-p][1]oxa[4,7,10,14]tetraazacycloheptadecine-11,1′-cyclopropane]-18-carboxamide], the pEC50 is 6.49 and the Emax is 310%.
For `COc1cccc(CCNC(=O)[C@@H]2CC(=O)N(C)[C@@H](CC(C)C)C(=O)N(C)C3(CC3)C(=O)N[C@H](Cc3ccccc3)COc3ncc4ccccc4c3C(=O)N2)c1` [Example 555, (3′S,7′S,13′R)-13′-benzyl-7′-isobutyl-N-(3-methoxyphenethyl)-6′,9′-dimethyl-1′,5′,8′,11′-tetraoxo-2′,3′,4′,5′,6′,7′,8′,9′,11′,12′,13′,14′-dodecahydro-1′H-spiro[cyclopropane-1,10′-[1]oxa[4,7,10,14]tetraazacycloheptadecino[17,16-c]isoquinoline]-3′-carboxamide], in that order: 6.66 and 309%.
Take `CC(C)C[C@H]1C(=O)N(C)C2(CC2)C(=O)N[C@H](Cc2ccccc2)COc2ncc3ccccc3c2C(=O)N[C@H](C(=O)NCCc2cc(C3CC3)no2)CC(=O)N1C` [Example 556, (3′S,7′S,13′R)-13′-benzyl-N-(2-(3-cyclopropylisoxazol-5-yl)ethyl)-7′-isobutyl-6′,9′-dimethyl-1′,5′,8′,11′-tetraoxo-2′,3′,4′,5′,6′,7′,8′,9′,11′,12′,13′,14′-dodecahydro-1′H-spiro[cyclopropane-1,10′-[1]oxa[4,7,10,14]tetraazacycloheptadecino[17,16-c]isoquinoline]-3′-carboxamide]: the pEC50 is 6.49 and the Emax was 322%.
On to `COc1nccc2c1C(=O)N[C@H](C(=O)NCCc1noc(C3CC3)n1)CC(=O)N(C)[C@@H](CC(C)C)C(=O)N(C)[C@@H](CC1CCC(F)(F)CC1)C(=O)N[C@H](Cc1ccccc1)CO2` [Example 557, (3R,6S,9S,13S)-3-benzyl-N-(2-(5-cyclopropyl-1,2,4-oxadiazol-3-yl)ethyl)-6-((4,4-difluorocyclohexyl)methyl)-9-isobutyl-16-methoxy-7,10-dimethyl-5,8,11,15-tetraoxo-2,3,4,5,6,7,8,9,10,11,12,13,14,15-tetradecahydropyrido[3,4-p][1]oxa[4,7,10,14]tetraazacycloheptadecine-13-carboxamide], for which the negative-log EC50 (pEC50) is 6.23 and the Emax is 253%.
Regarding `COc1nccc2c1C(=O)N[C@H](C(=O)NCCc1noc(C3CC3)n1)CC(=O)N(C)[C@@H](CC(C)C)C(=O)N(C)[C@H](CC1CCC(F)(F)CC1)C(=O)N[C@H](Cc1ccccc1)CO2` [Example 558, (3R,6R,9S,13S)-3-benzyl-N-(2-(5-cyclopropyl-1,2,4-oxadiazol-3-yl)ethyl)-6-((4,4-difluorocyclohexyl)methyl)-9-isobutyl-16-methoxy-7,10-dimethyl-5,8,11,15-tetraoxo-2,3,4,5,6,7,8,9,10,11,12,13,14,15-tetradecahydropyrido[3,4-p][1]oxa[4,7,10,14]tetraazacycloheptadecine-13-carboxamide], the pEC50 is 6.78 and the maximal response (Emax) was determined as 355%.
The matching figures for `CC(C)C[C@H]1C(=O)N2CCCC[C@@H]2C(=O)N[C@H](Cc2ccccc2)COc2cnc3ccccc3c2C(=O)N[C@H](C(=O)NCCc2cc(C(F)(F)F)no2)CC(=O)N1C` [Example 559, (9S,13S,19aR,22R)-22-benzyl-13-isobutyl-12-methyl-7,11,14,20-tetraoxo-N-(2-(3-(trifluoromethyl)isoxazol-5-yl)ethyl)-7,8,9,10,11,12,13,14,17,18,19,19a,20,21,22,23-hexadecahydro-16H-pyrido[2′,1′:6,7][1]oxa[4,7,10,14]tetraazacycloheptadecino[17,16-c]quinoline-9-carboxamide]: 6.81 and 236%.
For `CC(C)C[C@H]1C(=O)N2CCCC[C@@H]2C(=O)N[C@H](Cc2ccccc2)COc2cnc3ccc(F)cc3c2C(=O)N[C@H](C(=O)NCCc2cc(C(F)(F)F)no2)CC(=O)N1C` [Example 560, (9S,13S,19aR,22R)-22-benzyl-5-fluoro-13-isobutyl-12-methyl-7,11,14,20-tetraoxo-N-(2-(3-(trifluoromethyl)isoxazol-5-yl)ethyl)-7,8,9,10,11,12,13,14,17,18,19,19a,20,21,22,23-hexadecahydro-16H-pyrido[2′,1′:6,7][1]oxa[4,7,10,14]tetraazacycloheptadecino[17,16-c]quinoline-9-carboxamide], in that order: 6.94 and 249%.
The matching figures for `Cc1cc2ccc3c(c2o1)C(=O)N[C@H](C(=O)NCCc1noc(C2CC2)n1)CC(=O)N(C)[C@@H](CC(C)C)C(=O)N(C)CC(=O)N[C@H](Cc1ccccc1)CO3` [Example 561, (8R,14S,18S)-8-benzyl-N-(2-(5-cyclopropyl-1,2,4-oxadiazol-3-yl)ethyl)-14-isobutyl-2,12,15-trimethyl-10,13,16,20-tetraoxo-7,8,9,10,11,12,13,14,15,16,17,18,19,20-tetradecahydrobenzofuro[7,6-p][1]oxa[4,7,10,14]tetraazacycloheptadecine-18-carboxamide]: 6.36 and 215%.
Turning to `Cc1cc2ccc3c(c2o1)C(=O)N[C@H](C(=O)NCCc1nc(C2CC2)no1)CC(=O)N(C)[C@@H](CC(C)C)C(=O)N(C)CC(=O)N[C@H](Cc1ccccc1)CO3` [Example 562, (8R,14S,18S)-8-benzyl-N-(2-(3-cyclopropyl-1,2,4-oxadiazol-5-yl)ethyl)-14-isobutyl-2,12,15-trimethyl-10,13,16,20-tetraoxo-7,8,9,10,11,12,13,14,15,16,17,18,19,20-tetradecahydrobenzofuro[7,6-p][1]oxa[4,7,10,14]tetraazacycloheptadecine-18-carboxamide], the pEC50 was 6.35 and the Emax stood at 282%.
